Key:
Format in all cases: physicochemical
[1] = surface tension measurement at various concentrations and temperatures
Experimental: The surface tension measurement were carried out on Monawet SNO-35 and coco diethanolamide (CDA) at various concentrations and various temperatures. The following results establish that the higher surface tension values of the products of this invention when compared to the prior art, coco diethanolamide (CDA), would have lower foaming in drilling fluid applications.

[2] = coefficient of friction on sandstone, Lubricity Evaluation Monitor (LEM) (Table 5); conditions: 1/2% in 22.5 ppb bentonite slurry
Experimental: The following experiment shower the lubricity properties of surfactants of this invention in 22.5 ppb bentonite slurry in water. The coefficient of friction on sandstone was determined using a Lubricity Evaluation Monitor (LEM) designed by M-I Drilling Fluids Company.

[3] = lubricity coefficient, Baroid lubricity meter (Table 4); conditions: 1% solution in deionized water
Experimental: A 1% solution of surfactant as in deionized water was tested on a Baroid lubricity meter (Model No. 21200-EP/Lubricity Tester). The lubricity coefficient of the samples were calculated and recorded in Table 4. Deionized water was used as base.

Surface Tension ([1]; 0.1% in DI water, 24 °C): 51 dynes per centimeter
Surface Tension ([1]; 0.1% in DI water, 38 °C): 47 dynes per centimeter
Surface Tension ([1]; 0.1% in DI water, 43 °C): 45 dynes per centimeter
Surface Tension ([1]; 0.1% in DI water, 50 °C): 44 dynes per centimeter
Surface Tension ([1]; 1.0% in DI water, 24 °C): 49 dynes per centimeter
Surface Tension ([1]; 1.0% in DI water, 36 °C): 42 dynes per centimeter
Surface Tension ([1]; 1.0% in DI water, 45 °C): 38 dynes per centimeter
Surface Tension ([1]; 1.0% in DI water, 50 °C): 37 dynes per centimeter
Surface Tension ([1]; 2.0% in DI water, 24 °C): 46 dynes per centimeter
Surface Tension ([1]; 2.0% in DI water, 38 °C): 41 dynes per centimeter
Surface Tension ([1]; 2.0% in DI water, 44 °C): 39 dynes per centimeter
Surface Tension ([1]; 2.0% in DI water, 49 °C): 37 dynes per centimeter
Coefficient of Friction [2]: 0.168
Lubricity coefficient [3]: .095
SMILES: CCCCCCCCCCCCCCCCCCN(C(=O)CC(C(=O)O)S(=O)(=O)O)C(CC(=O)O)C(=O)O (stereo not shown) [Monawet SNO-35, tetrasodium N-(1,2-dicarboxyethyl) N-alkyl (C18) sulfosuccinamate]
% Reduction (coefficient of friction) [2]: 73.9%
% Reduction (lubricity coefficient) ([3]; versus DI water): 72%

Source: US5639715A, “Aqueous based drilling fluid additive and composition” (M-I Drilling Fluids LLC, priority 1994, dated 1997)
